The source made the active and inactive calls. No cut-off for these calls is given here.
Experiments:
Nucleic Acid [1] = test: Induction of photochemical DNA cleavage in Escherichia coli pBR322 assessed as form 2 level at 15 uM in pH 6.0 phosphate buffer measured after 6 mins of UV irradiation; assay type: nucleic-acid assay
Nucleic Acid [2] = test: Induction of photochemical DNA cleavage in Escherichia coli pBR322 assessed as form 3 level at 15 uM in pH 7.0 phosphate buffer measured after 8 mins of UV irradiation; assay type: nucleic-acid assay
Nucleic Acid [3] = test: Induction of photochemical DNA cleavage in Escherichia coli pBR322 assessed as disappearance of supercoiled DNA at 15 uM in pH 6.0 phosphate buffer after 10 mins of UV irradiation; assay type: nucleic-acid assay
Nucleic Acid [4] = test: Induction of photochemical DNA cleavage in Escherichia coli pBR322 assessed as form 3 level at 15 uM in pH 7.0 phosphate buffer measured after 10 mins of UV irradiation; assay type: nucleic-acid assay
Nucleic Acid [5] = test: Induction of photochemical DNA cleavage in Escherichia coli pBR322 assessed as form 2 level at 15 uM in pH 6.0 phosphate buffer measured after 4 mins of UV irradiation; assay type: nucleic-acid assay
Nucleic Acid [6] = test: Induction of photochemical DNA cleavage in Escherichia coli pBR322 assessed as form I level at 15 uM in pH 8.0 phosphate buffer measured after 10 mins of UV irradiation; assay type: nucleic-acid assay
Nucleic Acid [7] = test: Induction of photochemical DNA cleavage in Escherichia coli pBR322 assessed as form 3 level at 15 uM in pH 6.0 phosphate buffer measured after 10 mins of UV irradiation; assay type: nucleic-acid assay
Nucleic Acid [8] = test: Induction of photochemical DNA cleavage in Escherichia coli pBR322 assessed as form I level at 15 uM in pH 6.0 phosphate buffer measured after 8 mins of UV irradiation; assay type: nucleic-acid assay
Nucleic Acid [9] = test: Induction of photochemical DNA cleavage in Escherichia coli pBR322 assessed as form 3 level at 15 uM in pH 7.0 phosphate buffer measured after 2 mins of UV irradiation; assay type: nucleic-acid assay
Nucleic Acid [10] = test: Induction of photochemical DNA cleavage in Escherichia coli pBR322 assessed as disappearance of supercoiled DNA at 15 uM in pH 7.0 phosphate buffer after 10 mins of UV irradiation; assay type: nucleic-acid assay
Nucleic Acid [11] = test: Induction of photochemical DNA cleavage in Escherichia coli pBR322 assessed as form 2 level at 15 uM in pH 6.0 phosphate buffer measured after 8 mins of UV irradiation; assay type: nucleic-acid assay
Nucleic Acid [12] = test: Induction of DNA cleavage in Escherichia coli pBR322 assessed as form3/form2 ratio at 15 uM at pH 6 to 9 after 10 mins of UV irradiation; assay type: nucleic-acid assay
Nucleic Acid [13] = test: Induction of photochemical DNA cleavage in Escherichia coli pBR322 assessed as form 2 level at 15 uM in pH 7.0 phosphate buffer measured after 2 mins of UV irradiation; assay type: nucleic-acid assay
A-375 [14] = test: Drug uptake in human A375 cells at 30 uM incubated for 30 mins by fluorescence microscopy; assay type: ADME, cell-based; settings: a-375, 0.5 h
Nucleic Acid [15] = test: Induction of photochemical DNA cleavage in Escherichia coli pBR322 assessed as form I level at 15 uM in pH 6.0 phosphate buffer measured after 6 mins of UV irradiation; assay type: nucleic-acid assay
Nucleic Acid [16] = test: Induction of photochemical DNA cleavage in Escherichia coli pBR322 assessed as form 2 level at 15 uM in pH 8.0 phosphate buffer measured after 0.5 mins of UV irradiation; assay type: nucleic-acid assay
Nucleic Acid [17] = test: Induction of photochemical DNA cleavage in Escherichia coli pBR322 assessed as form I level at 15 uM in pH 7.0 phosphate buffer measured after 0.5 mins of UV irradiation; assay type: nucleic-acid assay
Nucleic Acid [18] = test: Induction of photochemical DNA cleavage in Escherichia coli pBR322 assessed as form 2 level at 15 uM in pH 6.0 phosphate buffer measured after 1 min of UV irradiation; assay type: nucleic-acid assay
Nucleic Acid [19] = test: Induction of photochemical DNA cleavage in Escherichia coli pBR322 assessed as form I level at 15 uM in pH 6.0 phosphate buffer measured after 0.5 mins of UV irradiation; assay type: nucleic-acid assay
Nucleic Acid [20] = test: Induction of photochemical DNA cleavage in Escherichia coli pBR322 assessed as form 2 level at 15 uM in pH 7.0 phosphate buffer measured after 0.5 mins of UV irradiation; assay type: nucleic-acid assay
Nucleic Acid [21] = test: Induction of photochemical DNA cleavage in Escherichia coli pBR322 assessed as form 2 level at 15 uM in pH 8.0 phosphate buffer measured after 1 min of UV irradiation; assay type: nucleic-acid assay
Nucleic Acid [22] = test: Induction of DNA cleavage in Escherichia coli pBR322 at 15 uM in pH 6.0 phosphate buffer measured after of UV irradiation; assay type: nucleic-acid assay
Nucleic Acid [23] = test: Induction of photochemical DNA cleavage in Escherichia coli pBR322 assessed as form 3 level at 15 uM in pH 6.0 phosphate buffer measured after 4 mins of UV irradiation; assay type: nucleic-acid assay
Nucleic Acid [24] = test: Induction of photochemical DNA cleavage in Escherichia coli pBR322 assessed as form 2 level at 15 uM in pH 7.0 phosphate buffer measured after 1 min of UV irradiation; assay type: nucleic-acid assay
Nucleic Acid [25] = test: Induction of photochemical DNA cleavage in Escherichia coli pBR322 assessed as form 2 level at 15 uM in pH 7.0 phosphate buffer measured after 10 mins of UV irradiation; assay type: nucleic-acid assay
A-375 [26] = test: Phototoxicity in human A375 cells incubated for 72 hrs exposed to UV light for 10 mins by MTT assay; assay type: functional; settings: A-375, light or radiation study
Nucleic Acid [27] = test: Induction of photochemical DNA cleavage in Escherichia coli pBR322 assessed as form I level at 15 uM in pH 8.0 phosphate buffer measured after 0.5 mins of UV irradiation; assay type: nucleic-acid assay
A-375 [28] = test: Toxicity in human A375 cells at <10 uM under dark condition incubated for 72 hrs by MTT assay; assay type: cell-based; settings: a-375, 72 h
Nucleic Acid [29] = test: Induction of photochemical DNA cleavage in Escherichia coli pBR322 assessed as form 2 level at 15 uM in pH 6.0 phosphate buffer measured after 10 mins of UV irradiation; assay type: nucleic-acid assay
Nucleic Acid [30] = test: Induction of photochemical DNA cleavage in Escherichia coli pBR322 assessed as form 3 level at 15 uM in pH 8.0 phosphate buffer measured after 2 mins of UV irradiation; assay type: nucleic-acid assay
Nucleic Acid [31] = test: Induction of DNA cleavage in Escherichia coli pBR322 at 5 uM in pH 6.0 phosphate buffer measured after of UV irradiation; assay type: nucleic-acid assay
Nucleic Acid [32] = test: Induction of photochemical DNA cleavage in Escherichia coli pBR322 assessed as form I level at 15 uM in pH 6.0 phosphate buffer measured after 10 mins of UV irradiation; assay type: nucleic-acid assay
Nucleic Acid [33] = test: Induction of photochemical DNA cleavage in Escherichia coli pBR322 assessed as form 2 level at 15 uM in pH 6.0 phosphate buffer measured after 0.5 mins of UV irradiation; assay type: nucleic-acid assay
Nucleic Acid [34] = test: Induction of photochemical DNA cleavage in Escherichia coli pBR322 assessed as form 3 level at 15 uM in pH 6.0 phosphate buffer measured after 6 mins of UV irradiation; assay type: nucleic-acid assay
A-375 [35] = test: Drug uptake in human A375 cells at 30 uM incubated for 30 mins by differential interference contrast microscopy; assay type: ADME, cell-based; settings: a-375, 0.5 h
Nucleic Acid [36] = test: Induction of photochemical DNA cleavage in Escherichia coli pBR322 assessed as form I level at 15 uM in pH 7.0 phosphate buffer measured after 10 mins of UV irradiation; assay type: nucleic-acid assay

NCCCC[C@H](N)C(=O)NCCCC[C@H](N)C(=O)Nc1ccc(C#Cc2c(F)c(F)nc(F)c2F)cc1.O=C(O)C(F)(F)F
Activity (Nucleic Acid [1]): 48.1%
Activity (Nucleic Acid [2]): 28.1%
Activity (Nucleic Acid [3]): Active
Activity (Nucleic Acid [4]): 40.5%
Activity (Nucleic Acid [5]): 65.1%
Activity (Nucleic Acid [6]): 26.3%
Activity (Nucleic Acid [7]): 78.7%
Activity (Nucleic Acid [8]): 0%
Activity (Nucleic Acid [9]): 12.7%
Activity (Nucleic Acid [10]): Active
Activity (Nucleic Acid [11]): 35%
Ratio (Nucleic Acid [12]): 2
Activity (Nucleic Acid [13]): 41.5%
Drug uptake (A-375 [14]): Active
Activity (Nucleic Acid [15]): 0%
Activity (Nucleic Acid [16]): 13.6%
Activity (Nucleic Acid [17]): 64.6%
Activity (Nucleic Acid [18]): 52.7%
Activity (Nucleic Acid [19]): 26.5%
Activity (Nucleic Acid [20]): 35.4%
Activity (Nucleic Acid [21]): 16.1%
Activity (Nucleic Acid [22]): 159%
Activity (Nucleic Acid [23]): 34.9%
Activity (Nucleic Acid [24]): 47.3%
Activity (Nucleic Acid [25]): 47.8%
CC50 (A-375 [26]): 270 nM
Activity (Nucleic Acid [27]): 86.4%
Activity (A-375 [28]): Non-toxic
Activity (Nucleic Acid [29]): 21.3%
Activity (Nucleic Acid [30]): 0%
Activity (Nucleic Acid [31]): 50%
Activity (Nucleic Acid [32]): 0%
Activity (Nucleic Acid [33]): 60%
Activity (Nucleic Acid [34]): 51.9%
Drug uptake (A-375 [35]): Active
Activity (Nucleic Acid [36]): 11.7%
